For two molecules, pKa, ppm/pH and LD50 results are on record in patent US5210290A, “Fluorobenzenesulfonamides” (Schering Aktiengesellschaft, priority 1990, dated 1993).

One data set is described as follows: pKa (37° C.). It counts as physicochemical.
Data set [1] is described as follows: pH dependency of the 19F NMR chemical shift (ppm/pH). It counts as physicochemical. The conditions noted are these: change of 19F chemical shift per pH unit. From the text: Determination of the pH value with the aid of NMR spectroscopy is based on the measurement of the signals from a chemical compound which is in a pH-dependent, reversible equilibrium. If this equilibrium is slow with respect to the NMR time scale, then the signals of all components can be obtained, and the signal intensities correspond to the concentrations of the equilibrium components. In contrast thereto, with a fast equilibrium, only one signal can be measured, and the chemical shift is given by the chemical displacement of the equilibrium components and their concentration.
In a two-component equilibrium, with knowledge of the pKa value and the chemical shift of the components, it is then possible to calculate the pH value with the aid of the Henderson-Hasselbalch equation.
The frequency (chemical shift) of a fluorine line is determined by the position of the F atom in the molecule. This also holds true, in principle, for all other atomic nuclei, but the chemical shift is especially strongly pronounced in case of the fluorine atom. In order to observe and/or quantify a shift of the fluorine signal, a related (reference) line is needed. This frequency line can be the ^1 H signal, an external F standard or, respectively, an unchanging F line which is likewise within the area to be measured. […]

A short description of a further data set: LD50, mouse. The conditions noted are these: in vivo.

A value given as a limit tells only on which side of the number the result lay.

A word on the pKa: it is the negative logarithm of the acid dissociation constant. Read a high pKa as a weaker acid or stronger base. What is called LD50 is the dose expected to kill half of the subjects tested. A low value points to greater toxicity. Regarding `O=C(O)CN(CC(=O)O)C(=O)CS(=O)(=O)Nc1ccc(F)cc1C(F)(F)F` [Example 10, 2-[2-[N-(4-Fluoro-2-trifluoromethylphenyl)sulfamoyl]acetylimino]diacetic Acid], the pKa in “pKa (37° C.)” turned out to be 6.68. For the same molecule, the ppm/pH in data set [1] stood at 4.94 ppm/pH. The LD50 in “LD50, mouse” is not above 7500 µmol/kg.
For `O=C(O)CCNC(=O)CCS(=O)(=O)Nc1ccc(F)cc1C(F)(F)F` [Example 48, 3-[3-[N-(4-Fluoro-2-trifluoromethylphenyl)sulfamoyl]propionylamino]propionic Acid], the pKa in the data set “pKa (37° C.)” is 6.91. Besides, the ppm/pH in data set [1] was 5.21 ppm/pH. Besides, the LD50 in “LD50, mouse” turned out to be 4000 µmol/kg.
